{
  "source": "patent US10793594B2",
  "about": "“Antimicrobial compounds and/or modulators of microbial infections and methods of using the same” (Indiana University Research and Technology Corporation, priority 2017, dated 2020)",
  "key": {"[1]": {"test_system": "Ca and/or Cn (Candida albicans, Cryptococcus neoformans)", "assay": "CO-ADD preliminary screen and hit confirmation against fungi", "format": "cell-based", "conditions": "two replicated lots, mixtures of enantiomers or diastereomers; for preliminary activity against Ca and/or Cn (preliminary screen): single concentration", "description": "(§1) Briefly, CO-ADD, The Community for Open Antimicrobial Drug Discovery, is a global open-access screening initiative launched in February 2015 to uncover significant and rich chemical diversity held outside of corporate screening collections. For screening, about 1 mg of pure compound is required and the compounds must be soluble in DMSO. In the preliminary screening, compounds are tested against some ESKAPE pathogens, including, but are not limited to, E. coli, K. pneumoniae, A. baumannii, P. aeruginosa, S. aureus (MRSA), as well as the fungi, for example, C. neoformans and C. albicans. The screen uses a single concentration (e.g., […]) and provides initial activity data to select compounds for further more detailed screening. Active compounds from the preliminary screening are tested in dose response antimicrobial assays to confirm their activity. Active compounds are screened for adverse effects, such as cytotoxicity, critical micelle concentration and membrane depolarization, as well as for their purity. Then, the hit compound is tested against a broader panel of microbes with multidrug-resistant (MDR) and pan-resistant bacterial strains and clinical isolates, with different co-factors (such as serum or lung surfactant). The hit validation includes initial ADMET screening, including haemolysis, microsome and plasma stability and protein binding. See CO-ADD website for more details.\n(§2) The minimum inhibitory concentration (MIC) was determined following the CLSI (Clinical Laboratory and Standards Institute) guidelines, identifying the lowest concentration at which full inhibition of the bacteria or fungi has been detected. […] Note that MIC values are discrete values based on the concentration in a specific well.\n(§3) Selection of Hits: Samples with MIC (≤16 μg/mL or ≤10 μM) are declared as a hit. For toxicity (cytotoxicity and haemolytic activity) all sample/s with CC50/HC10≤maximum tested concentration are considered active, or toxic. Since the maximum tested concentration is the same for toxicity and antimicrobial activity, no therapeutic index (MIC/CC50 or MIC/HC10) can be calculated and all sample/s with toxic activity are flagged.\nGrowth inhibition of C. albicans was determined measuring absorbance at 530 nm (OD530), while the growth inhibition of C. neoformans was determined measuring the difference in absorbance between 600 and 570 nm (OD600-570), after the addition of resazurin (0.001% final concentration) and incubation at 35° C. for additional 2 h. The absorbance was measured using a Biotek Synergy HTX plate reader. The percentage of growth inhibition was calculated for each well, using the negative control (media only) and positive control (bacteria without inhibitors) on the same plate as references. Percentage growth inhibition of an individual sample is calculated based on Negative controls (media only) and Positive Controls (bacterial/fungal media without inhibitors). Negative inhibition values indicate that the growth rate (or OD600) is higher compared to the Negative Control (Bacteria/fungi only, set to 0% inhibition). The growth rates for all bacteria and fungi has a variation of −/+10%, which is within the reported normal distribution of bacterial/fungal growth.\nIn addition, two values are used as quality controls for individual plates: Z′-Factor [1−(3*(sd(NegCtrl)+sd(PosCtrl))/(average(PosCtrl)−average(NegCtrl)))] and Standard Antibiotic controls at different concentrations (>MIC and <MIC). […] Active samples are defined as those with inhibition values equal to or above 80% and abs(Z-Score) above 12.51 for either replicate (n=2 on different plates) were classed as active. Partially active compounds are defined as those with inhibition values between 50.9%-79.9% or abs(Z-Score) below 12.51.\nSamples were prepared in DMSO and water to a final testing concentration of 32 μg/mL or 20 μM and serially diluted 1:2 fold for 8 times. […]"}, "Acinetobacter baumannii": {"test_system": "Acinetobacter baumannii", "assay": "CO-ADD preliminary screen and hit confirmation against Acinetobacter baumannii", "format": "cell-based", "conditions": "for hit confirmation against Acinetobacter baumannii: hit confirmation (HC), separated diastereomers; for activity against Acinetobacter baumannii in the preliminary screen: preliminary screen (PS)", "description": "as §1, §2, §3\nReferring now to FIGS. 52 and 53, inhibition of bacterial growth was determined measuring absorbance at 600 nm (OD600), using a Tecan M1000 Pro monochromator plate reader. The percentage of growth inhibition was calculated for each well, using the negative control (media only) and positive control (bacteria without inhibitors) on the same plate as references.\nSamples were prepared in DMSO and water to a final testing concentration of 32 μg/mL or 20 μM and serially diluted 1:2 fold for 8 times. Each sample concentration was prepared in 384-well plates, non-binding surface plate (NBS; Corning 3640) for each bacterial/fungal strain or Tissue-culture treated (TC-treated; Corning 3712/3764) black for mammalian cell types, all in duplicate (n=2), and keeping the final DMSO concentration to a maximum of 0.5% DMSO. All the sample preparation was done using liquid handling robots.\nFor the antibacterial screening, all bacteria were cultured in Cation-adjusted Mueller Hinton broth (CAMHB) at 37° C. overnight. A sample of each culture was then diluted 40-fold in fresh broth and incubated at 37° C. for 1.5-3 h. The resultant mid-log phase cultures were diluted (CFU/mL measured by OD600), then added to each well of the compound containing plates, giving a cell density of 5×10^5 CFU/mL and a total volume of 50 μL. All the plates were covered and incubated at 37° C. for 18 h without shaking."}, "[2]": {"test_system": "Pseudomonas aeruginosa (PA14)", "assay": "Pa biofilm formation/growth inhibition assay (crystal violet)", "format": "cell-based", "conditions": "phenylalanine deficient biofilm assay"}, "[3]": {"test_system": "Cryptococcus neoformans (Cn)", "assay": "CO-ADD antimicrobial screening, growth of Cryptococcus neoformans (MIC)", "format": "cell-based", "description": "Briefly, CO-ADD, The Community for Open Antimicrobial Drug Discovery, is a global open-access screening initiative launched in February 2015 to uncover significant and rich chemical diversity held outside of corporate screening collections. For screening, about 1 mg of pure compound is required and the compounds must be soluble in DMSO. In the preliminary screening, compounds are tested against some ESKAPE pathogens, including, but are not limited to, E. coli, K. pneumoniae, A. baumannii, P. aeruginosa, S. aureus (MRSA), as well as the fungi, for example, C. neoformans and C. albicans. The screen uses a single concentration (e.g., […]) and provides initial activity data to select compounds for further more detailed screening. Active compounds from the preliminary screening are tested in dose response antimicrobial assays to confirm their activity. […]\nThe minimum inhibitory concentration (MIC) was determined following the CLSI (Clinical Laboratory and Standards Institute) guidelines, identifying the lowest concentration at which full inhibition of the bacteria or fungi has been detected. […]\nFungi strains were cultured for 3 days on Yeast Extract-Peptone Dextrose (YPD) agar at 30° C. A yeast suspension of 1×106 to 5×10^6 CFU/mL (as determined by OD530) was prepared from five colonies. […]"}, "bacterial biofilms": {"test_system": "bacterial biofilms", "conditions": "cited from earlier work"}},
  "note": "Where a SMILES comes first, the peptide text is derived from it. [ ]: non-standard residue; d: D form. ξ: configuration not given here. ξPhe(3-F) = NC(Cc1cccc(F)c1)C(=O)O; ξPhe(4-F) = NC(Cc1ccc(F)cc1)C(=O)O",
  "data": [
    {"smiles": "NCC(=O)NC(Cc1cccc(F)c1)C(=O)O", "note": "[compound 43, (2R,2S)-[2-(2-aminoacetamido)]-3-(3-fluorophenyl)propanoic acid] (H-Gly-[ξPhe(3-F)]-OH)", "values": [
      {"measurement": "preliminary activity against Ca and/or Cn (preliminary screen)", "setting": "[1]", "result": "preliminary activity"}
    ]},
    {"smiles": "CC(C)C[C@H](N)C(=O)NC(Cc1cccc(F)c1)C(=O)O", "note": "(stereo partly drawn) [compound 46, (2R,2S)-[2-((S)-2-amino-4-methylpentanamido)]-3-(3-fluorophenyl)propanoic acid]", "values": [
      {"measurement": "preliminary activity against Ca and/or Cn (preliminary screen)", "setting": "[1]", "result": "preliminary activity"}
    ]},
    {"smiles": "C[C@H](N)C(=O)N[C@@H](Cc1cccc(F)c1)C(=O)O", "note": "(single isomer, unassigned) [44a]", "values": [
      {"measurement": "hit confirmation against Acinetobacter baumannii", "setting": "Acinetobacter baumannii", "result": "hit confirmation was observed"},
      {"measurement": "activity against Acinetobacter baumannii in the preliminary screen", "setting": "Acinetobacter baumannii", "result": "not seen"}
    ]},
    {"smiles": "C[C@H](N)C(=O)NC(Cc1cccc(F)c1)C(=O)O", "note": "(stereo partly drawn) [compound 44, (2R,2S)-[2-((S)-2-aminopropanamido)]-3-(3-fluorophenyl)propanoic acid]", "values": [
      {"measurement": "activity against Ca and/or Cn confirmed (hit confirmation)", "setting": "[1]", "result": "confirmed"}
    ]},
    {"smiles": "C[C@@H](O)[C@H](N)C(=O)NC(Cc1ccc(F)cc1)C(=O)O", "note": "(stereo partly drawn) [compound 108, (2R,2S)-[((2S,3R)-2-amino-3-hydroxybutanamido)]-3-(4-fluorophenyl)propanoic acid] (H-Thr-[ξPhe(4-F)]-OH)", "values": [
      {"measurement": "ability to inhibit the growth of P. aeruginosa (Pa) in a biofilm assay", "setting": "[2]", "result": "had shown activity"}
    ]},
    {"smiles": "NCC(=O)NC(Cc1ccc(F)cc1)C(=O)O", "note": "[compound 30, (2R,2S)-[2-(2-aminoacetamido)]-3-(4-fluorophenyl)propanoic acid] (H-Gly-[ξPhe(4-F)]-OH)", "values": [
      {"measurement": "preliminary activity against Ca and/or Cn (preliminary screen)", "setting": "[1]", "result": "preliminary activity"}
    ]},
    {"smiles": "N[C@@H](Cc1ccc(O)cc1)C(=O)N[C@@H](Cc1cccc(F)c1)C(=O)O", "note": "(single isomer, unassigned) [45a]", "values": [
      {"measurement": "hit confirmation against Acinetobacter baumannii", "setting": "Acinetobacter baumannii", "result": "hit confirmation was observed"},
      {"measurement": "activity against Acinetobacter baumannii in the preliminary screen", "setting": "Acinetobacter baumannii", "result": "not seen"}
    ]},
    {"smiles": "N[C@H](C(=O)NC(Cc1cccc(F)c1)C(=O)O)c1ccccc1", "note": "(stereo partly drawn) [compound 52, (2R,2S)-[2-((S)-2-amino-2-phenylacetamido)]-3-(3-fluorophenyl)propanoic acid]", "values": [
      {"measurement": "preliminary activity against Ca and/or Cn (preliminary screen)", "setting": "[1]", "result": "preliminary activity"}
    ]},
    {"smiles": "C[C@H](N)C(=O)NC(Cc1ccc(F)cc1)C(=O)O", "note": "(stereo partly drawn) [compound 25, (2R,2S)-[2-((S)-2-aminopropanamido)]-3-(4-fluorophenyl)propanoic acid]", "values": [
      {"measurement": "ability to inhibit the growth of P. aeruginosa (Pa) in a biofilm assay", "setting": "[2]", "result": "potent ability to inhibit the growth"},
      {"measurement": "activity against Ca and/or Cn confirmed (hit confirmation)", "setting": "[1]", "result": "confirmed"},
      {"measurement": "inhibitory effects on the growth of Cryptococcus neoformans (Cn)", "setting": "[3]", "result": "exhibited inhibitory effects"}
    ]},
    {"smiles": "O=C(O)C(Cc1cccc(F)c1)NC(=O)[C@@H]1CCCN1", "note": "(stereo partly drawn) [compound 48, (2R,2S)-[3-(3-fluorophenyl)]-2-((S)-pyrrolidine-2-carboxamido)propanoic acid] (H-Pro-[ξPhe(3-F)]-OH)", "values": [
      {"measurement": "preliminary activity against Ca and/or Cn (preliminary screen)", "setting": "[1]", "result": "preliminary activity"}
    ]},
    {"smiles": "C[C@H](N)C(=O)NC(Cc1ccccc1F)C(=O)O", "note": "(stereo partly drawn) [compound 36, (2R,2S)-[2-((S)-2-aminopropanamido)-3-(2-fluorophenyl)]propanoic acid]", "values": [
      {"measurement": "ability to inhibit the growth of P. aeruginosa (Pa) in a biofilm assay", "setting": "[2]", "result": "potent ability to inhibit the growth"},
      {"measurement": "activity against Ca and/or Cn confirmed (hit confirmation)", "setting": "[1]", "result": "confirmed"},
      {"measurement": "inhibitory effects on the growth of Cryptococcus neoformans (Cn)", "setting": "[3]", "result": "exhibited inhibitory effects"}
    ]},
    {"smiles": "N[C@H](Cc1ccc(O)cc1)C(=O)O", "note": "[D-Tyrosine]", "values": [
      {"measurement": "trigger for the disassembly of bacterial biofilms", "setting": "bacterial biofilms", "result": "particularly active"}
    ]},
    {"smiles": "N[C@@H](Cc1ccc(O)cc1)C(=O)NC(Cc1cccc(F)c1)C(=O)O", "note": "(stereo partly drawn) [compound 45, (2R,2S)-[2-((S)-2-amino-3-(4-hydroxyphenyl)propanamido)]-3-(3-fluorophenyl)propanoic acid]", "values": [
      {"measurement": "preliminary activity against Ca and/or Cn (preliminary screen)", "setting": "[1]", "result": "preliminary activity"}
    ]},
    {"smiles": "C[C@H](N)C(=O)N[C@@H](Cc1ccc(F)cc1)C(=O)O", "note": "(single isomer, unassigned) [25a]", "values": [
      {"measurement": "hit confirmation against Acinetobacter baumannii", "setting": "Acinetobacter baumannii", "result": "hit confirmation was observed"},
      {"measurement": "activity against Acinetobacter baumannii in the preliminary screen", "setting": "Acinetobacter baumannii", "result": "not seen"}
    ]}
  ]
}
